Columns and labels:
[1] = Rate constant (k) of clearance from isolated perfused rat liver (IPRL); type: ADME
[2] = biological target: T1, Integrin alpha-4/beta-1 (Homo sapiens, UniProt P05556+P13612); assay: Inhibition of binding of Very late antigen 4/vascular cell adhesion molecule 1 in a cell based ligand binding assay (Jurkat cells)
[3] = biological target: T1, Integrin alpha-4/beta-1; assay: Inhibition of binding of Very late antigen 4/vascular cell adhesion molecule 1 in a protein-based ligand binding assay; type: protein-complex assay
[4] = biological target: T1, Integrin alpha-4/beta-1; assay: Inhibition of very late antigen-4 (VLA-4)/vascular cell adhesion molecule-1(VCAM -1) interaction; type: protein-complex assay
[5] = biological target: T1, Integrin alpha-4/beta-1; assay: Inhibition of Jurkat cell VLA-4 adhesion to VCAM-1; type: cell-based

T1 sequence (P05556 whole entry): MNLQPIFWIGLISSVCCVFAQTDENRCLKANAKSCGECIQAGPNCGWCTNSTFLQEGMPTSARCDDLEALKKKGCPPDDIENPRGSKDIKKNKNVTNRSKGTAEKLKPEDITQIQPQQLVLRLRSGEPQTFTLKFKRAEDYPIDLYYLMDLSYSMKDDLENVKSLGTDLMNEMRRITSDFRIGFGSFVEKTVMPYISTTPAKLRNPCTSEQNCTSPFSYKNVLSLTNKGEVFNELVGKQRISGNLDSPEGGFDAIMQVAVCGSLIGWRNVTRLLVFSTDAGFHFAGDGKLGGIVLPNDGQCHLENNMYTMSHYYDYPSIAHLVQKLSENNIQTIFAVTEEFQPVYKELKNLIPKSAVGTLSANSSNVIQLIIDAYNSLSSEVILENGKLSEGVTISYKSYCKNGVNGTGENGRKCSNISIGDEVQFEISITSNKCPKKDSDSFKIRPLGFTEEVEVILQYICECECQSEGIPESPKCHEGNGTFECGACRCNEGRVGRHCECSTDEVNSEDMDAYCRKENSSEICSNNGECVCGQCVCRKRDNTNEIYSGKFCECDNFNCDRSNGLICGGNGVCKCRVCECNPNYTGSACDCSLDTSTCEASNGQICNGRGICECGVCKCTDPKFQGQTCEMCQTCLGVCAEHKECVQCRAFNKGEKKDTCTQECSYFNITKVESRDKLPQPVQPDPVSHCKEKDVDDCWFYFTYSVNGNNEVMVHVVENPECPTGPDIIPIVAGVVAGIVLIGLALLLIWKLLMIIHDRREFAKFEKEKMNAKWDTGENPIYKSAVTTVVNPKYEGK
T1 sequence (P13612 whole entry): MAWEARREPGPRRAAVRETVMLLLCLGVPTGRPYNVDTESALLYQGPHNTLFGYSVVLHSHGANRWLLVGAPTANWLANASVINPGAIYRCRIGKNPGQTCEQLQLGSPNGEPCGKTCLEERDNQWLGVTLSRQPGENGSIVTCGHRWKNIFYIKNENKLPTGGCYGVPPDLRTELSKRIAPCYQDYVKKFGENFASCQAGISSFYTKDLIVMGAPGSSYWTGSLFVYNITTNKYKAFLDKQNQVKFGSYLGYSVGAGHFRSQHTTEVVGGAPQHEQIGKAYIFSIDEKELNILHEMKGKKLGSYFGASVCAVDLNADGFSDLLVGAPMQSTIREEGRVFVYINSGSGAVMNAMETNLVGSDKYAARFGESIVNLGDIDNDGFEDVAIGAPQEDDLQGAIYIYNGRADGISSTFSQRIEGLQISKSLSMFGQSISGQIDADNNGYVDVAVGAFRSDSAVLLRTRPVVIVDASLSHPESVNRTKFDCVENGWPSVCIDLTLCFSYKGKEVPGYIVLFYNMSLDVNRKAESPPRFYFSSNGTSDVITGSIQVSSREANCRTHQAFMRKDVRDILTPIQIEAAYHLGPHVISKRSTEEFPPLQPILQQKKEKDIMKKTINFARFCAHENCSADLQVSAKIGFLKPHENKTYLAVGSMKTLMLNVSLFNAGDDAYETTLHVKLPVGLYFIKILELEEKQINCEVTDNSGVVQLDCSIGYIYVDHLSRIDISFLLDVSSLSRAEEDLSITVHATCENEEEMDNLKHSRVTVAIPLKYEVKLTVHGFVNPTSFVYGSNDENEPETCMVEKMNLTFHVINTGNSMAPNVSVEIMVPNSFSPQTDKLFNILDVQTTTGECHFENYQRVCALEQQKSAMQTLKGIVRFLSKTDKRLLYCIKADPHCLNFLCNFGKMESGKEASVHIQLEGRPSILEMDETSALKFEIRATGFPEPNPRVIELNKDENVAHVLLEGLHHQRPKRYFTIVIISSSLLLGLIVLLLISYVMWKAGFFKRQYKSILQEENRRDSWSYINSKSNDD

Row | Structure (SMILES) | k el [1] [s⁻¹] | IC50 [2] [nM] | IC50 [3] [nM] | IC50 [4] [nM] | IC50 [5] [nM]
1 | O=C(Nc1ccc(C[C@H](/N=c2\c(O)c(O)\c2=N/Cc2ccccc2)C(=O)O)cc1)c1c(Cl)cncc1Cl | 0.00117 | 320 | 3.7 |  | 
2 | C/N=c1\c(O)c(O)\c1=N/[C@@H](Cc1ccc(NC(=O)c2c(Cl)cncc2Cl)cc1)C(=O)O | 0.00025 | 990 | 0.9 |  | 
3 | CCC/N=c1\c(O)c(O)\c1=N/[C@@H](Cc1ccc(NC(=O)c2c(Cl)cncc2Cl)cc1)C(=O)O | 2.78e-05 | 120 | 1.5 |  | 
4 | CCN(CC)c1c(N[C@@H](Cc2ccc(OCc3c(Cl)cccc3Cl)cc2)C(=O)O)c(=O)c1=O | 0.00108 | 12400 | 25 |  | 
5 | CN(C)c1c(N[C@@H](Cc2ccc(NC(=O)c3c(Cl)cncc3Cl)cc2)C(=O)O)c(=O)c1=O | 0.00128 | 590 | 0.5 |  | 
6 | CCN1CCN(c2c(N[C@@H](Cc3ccc(NC(=O)c4c(Cl)cncc4Cl)cc3)C(=O)O)c(=O)c2=O)CC1 | 0.00103 | 60 | 0.5 |  | 
7 | CC(C)(C)/N=c1\c(O)c(O)\c1=N/[C@@H](Cc1ccc(NC(=O)c2c(Cl)cncc2Cl)cc1)C(=O)O | 0.000972 | 690 | 3.5 |  | 
8 | CCCCC/N=c1\c(O)c(O)\c1=N/[C@@H](Cc1ccc(NC(=O)c2c(Cl)cncc2Cl)cc1)C(=O)O | 0.00025 | 225 | 1 |  | 
9 | COCC/N=c1\c(O)c(O)\c1=N/[C@@H](Cc1ccc(NC(=O)c2c(Cl)cncc2Cl)cc1)C(=O)O | 0.0005 | 75 | 1.2 |  | 
10 | O=C(Nc1ccc(C[C@H](/N=c2\c(O)c(O)\c2=N/C2CC2)C(=O)O)cc1)c1c(Cl)cncc1Cl | 0.000444 | 250 | 1.5 |  | 
11 | O=C(Nc1ccc(C[C@H](/N=c2\c(O)c(O)\c2=N/CCCC(F)(F)F)C(=O)O)cc1)c1c(Cl)cncc1Cl | 0.000306 | 370 | 1 |  | 
12 | CC/N=c1\c(O)c(O)\c1=N/[C@@H](Cc1ccc(NC(=O)c2c(Cl)cncc2Cl)cc1)C(=O)O | 0.000556 | 425 | 0.6 |  | 
13 | O=C(Nc1ccc(C[C@H](/N=c2/c(N3CCCCC3)c(O)c2=O)C(=O)O)cc1)c1c(Cl)cncc1Cl | 0.00131 | 8.4 | 0.4 |  | 
14 | CCN(C)c1c(N[C@@H](Cc2ccc(NC(=O)c3c(Cl)cncc3Cl)cc2)C(=O)O)c(=O)c1=O | 0.00136 | 100 | 0.2 |  | 
15 | O=C(Nc1ccc(C[C@H](/N=c2\c(O)c(O)\c2=N/C2CCC2)C(=O)O)cc1)c1c(Cl)cncc1Cl | 0.000139 | 155 | 2.6 |  | 
16 | O=C(Nc1ccc(C[C@H](/N=c2/c(N3CCNCC3)c(O)c2=O)C(=O)O)cc1)c1c(Cl)cncc1Cl | 0.00125 | 40 | 0.4 |  | 
17 | CCN(CC)c1c(N[C@@H](Cc2ccc(Oc3ncccn3)cc2)C(=O)O)c(=O)c1=O | 0.00075 | 2300 | 1.5 |  | 

Next, values leading:

Row | k el [1] [s⁻¹] | IC50 [2] [nM] | IC50 [3] [nM] | IC50 [4] [nM] | IC50 [5] [nM] | Structure (SMILES)
18 | 0.00183 | 5.7 | 2 |  |  | CCCCN(CCCC)c1c(N[C@@H](Cc2ccc(NC(=O)c3c(Cl)cncc3Cl)cc2)C(=O)O)c(=O)c1=O
19 | 0.00158 | 3.1 | 0.3 |  |  | O=C(Nc1ccc(C[C@H](/N=c2/c(N3CCSCC3)c(O)c2=O)C(=O)O)cc1)c1c(Cl)cncc1Cl
20 | 0.000194 | 710 | 2.1 |  |  | CCC/N=c1\c(O)c(O)\c1=N/[C@@H](Cc1ccc(-c2c(OC)cccc2OC)cc1)C(=O)O
21 | 0.000389 | 90 |  |  |  | O=C(Nc1ccc(C[C@H](/N=c2\c(O)c(O)\c2=N/CCC(F)(F)F)C(=O)O)cc1)c1c(Cl)cncc1Cl
22 |  |  |  | 67 | 18300 | CCC/N=c1\c(O)c(O)\c1=N/[C@@H](Cc1ccc(OCc2c(Cl)cccc2Cl)cc1)C(=O)O
23 | 0.000722 | 95 | 1 |  |  | CC(C)/N=c1\c(O)c(O)\c1=N/[C@@H](Cc1ccc(NC(=O)c2c(Cl)cncc2Cl)cc1)C(=O)O
24 | 0.000306 | 845 | 50 |  |  | O=C(Nc1ccc(C[C@H](/N=c2\c(O)c(O)\c2=N/c2ccccc2)C(=O)O)cc1)c1c(Cl)cncc1Cl
25 | 0.000361 | 85 | 0.5 |  |  | CC(C)C/N=c1\c(O)c(O)\c1=N/[C@@H](Cc1ccc(NC(=O)c2c(Cl)cncc2Cl)cc1)C(=O)O
26 |  | 10800 | 6.7 |  |  | CCC/N=c1\c(O)c(O)\c1=N/[C@@H](Cc1ccc(-c2ccccc2OC)cc1)C(=O)O
27 | 0.000139 | 290 | 9 |  |  | O=C(Nc1ccc(C[C@H](/N=c2\c(O)c(O)\c2=N/C2CCCC2)C(=O)O)cc1)c1c(Cl)cncc1Cl
28 | 0.000167 | 8200 | 6.9 |  |  | CCC/N=c1\c(O)c(O)\c1=N/[C@@H](Cc1ccc(Oc2ncccn2)cc1)C(=O)O
29 | 0.000361 | 130 | 0.4 |  |  | CCCC/N=c1\c(O)c(O)\c1=N/[C@@H](Cc1ccc(NC(=O)c2c(Cl)cncc2Cl)cc1)C(=O)O
30 | 0.000861 | 160 | 0.5 |  |  | CCC(C)/N=c1\c(O)c(O)\c1=N/[C@@H](Cc1ccc(NC(=O)c2c(Cl)cncc2Cl)cc1)C(=O)O (stereo partly drawn)
31 | 0.00108 | 180 | 0.6 |  |  | CCN(CC)c1c(N[C@@H](Cc2ccc(-c3c(OC)cccc3OC)cc2)C(=O)O)c(=O)c1=O
32 | 0.00161 | 3.5 | 0.4 |  |  | CCN(CC)c1c(N[C@@H](Cc2ccc(NC(=O)c3c(Cl)cncc3Cl)cc2)C(=O)O)c(=O)c1=O
33 | 0.000611 | 1160 | 1.2 |  |  | CCN(CC)c1c(N[C@@H](Cc2ccc(-c3ccccc3OC)cc2)C(=O)O)c(=O)c1=O
34 | 0.000667 | 50 | 0.6 |  |  | CCCC(C)/N=c1\c(O)c(O)\c1=N/[C@@H](Cc1ccc(NC(=O)c2c(Cl)cncc2Cl)cc1)C(=O)O (stereo partly drawn)
35 | 0.00139 | 11 | 0.5 |  |  | O=C(Nc1ccc(C[C@H](/N=c2/c(N3CCOCC3)c(O)c2=O)C(=O)O)cc1)c1c(Cl)cncc1Cl
36 | 0.00125 | 13 | 0.2 |  |  | CCCN(C)c1c(N[C@@H](Cc2ccc(NC(=O)c3c(Cl)cncc3Cl)cc2)C(=O)O)c(=O)c1=O
37 | 0.000111 | 120 | 1 |  |  | C=CC/N=c1\c(O)c(O)\c1=N/[C@@H](Cc1ccc(NC(=O)c2c(Cl)cncc2Cl)cc1)C(=O)O

Source: ChEMBL document CHEMBL1135265, “Squaric acid derivatives as VLA-4 integrin antagonists” (Bioorg Med Chem Lett, 2002)
